Data reported in US20130023469A1, “LEPTIN FOR USE IN INCREASING LIVER REGENERATION” (Hadasit Medical Research Services & Development Ltd., priority 2009, published 2013).
Values joined by “and” are separate entries in the source; they are usually repeats but may differ in a detail not shown here. Equal values may be shown once. “Also recorded” adds a separate entry of the source.

Key:
[1] = tested on: hepatocytes; test: BrdU incorporation into hepatocytes (proliferation index) after two-thirds partial hepatectomy; format: in vivo, mice
Procedure: Animal studies and tissue preparation. All animal experiments were performed in accordance with the guidelines of the Institutional Committee for the Use of Animals for Research (IACUC). Mice aged 18 months or older (‘old’ mice) were either purchased from the National Institute of Aging and from Charles River Laboratories or maintained up to the required age in the Specific Pathogen Free (SPF) animal facility at our institution. Mice aged 10-12 months (‘aged’ mice) and 8-week-old ob/ob mice were purchased from Harlan Laboratories. The genetic background of all mice was c57 Black. Pregnancy in ob/ob mice was induced as described previously (Malik et al., 2001). Pseudopregnancy was induced by mating females with vasectomized males and observing for the presence of vaginal plugs. Progesterone levels were measured to verify pseudopregnancy induction (Shiotani et al., 1993). For rapamycin treatment, mice were injected intraperitoneally (i.p.) for 3 consecutive days with rapamycin (0.2 mg/kg body weight diluted in DMSO; LC Laboratories), starting 3 h before the hepatectomy. For PTEN inhibition, bpV(phen) (3.3 μg/g body weight diluted in normal saline; Alexis Biochemicals) was administered i.p. on the day before hepatectomy and once a day for 3 days thereafter. BrdU (100 μl/10 g body weight; Amersham) was injected i.p. at the indicated times before the mice were killed. When indicated, BrdU (#B5002; Sigma) was added to the drinking water (0.8 mg/ml). The mice were allowed to drink ad libitum. For all experiments mice were killed by cervical dislocation. In some cases, a liver sample was removed and ‘snap-frozen’ for protein and RNA analyses. Livers were removed, weighed, photographed, and fixed in formalin overnight, and the next day the entire liver was embedded in paraffin. For measurement of serum prothrombin time, sodium citrate (0.105 M) was added immediately to the blood sample at a ratio of 1:10 (v/v), and values were recorded with a Beckman Coulter ACL 9000 Coagulation Analyzer according to the manufacturer's instructions. For ⅔ partial hepatectomy, virgin or pregnant mice (16-18 days post-coitum unless otherwise specified) were anesthetized, and the median and left lateral lobes of the liver were removed, as described (Ben Moshe et al., 2007).
Proliferation index. The percentage of BrdU-positive hepatocyte nuclei was assessed using the Kisight module of the Ariol SL 50® automated scanning microscope and image analysis system, according to the manufacturer's instructions. The same gating parameters were used for all sections. Ten fields in each liver were scored and the average percentage was calculated.
Immunohistochemistry and immunofluorescence. […]

[2] = tested on: hepatocytes; test: Hepatocyte cell size (E-cadherin staining) after partial hepatectomy; format: in vivo, mice
Procedure: (§1) Animal studies and tissue preparation. All animal experiments were performed in accordance with the guidelines of the Institutional Committee for the Use of Animals for Research (IACUC). Mice aged 18 months or older (‘old’ mice) were either purchased from the National Institute of Aging and from Charles River Laboratories or maintained up to the required age in the Specific Pathogen Free (SPF) animal facility at our institution. Mice aged 10-12 months (‘aged’ mice) and 8-week-old ob/ob mice were purchased from Harlan Laboratories. The genetic background of all mice was c57 Black. Pregnancy in ob/ob mice was induced as described previously (Malik et al., 2001). […] Progesterone levels were measured to verify pseudopregnancy induction (Shiotani et al., 1993). […] For measurement of serum prothrombin time, sodium citrate (0.105 M) was added immediately to the blood sample at a ratio of 1:10 (v/v), and values were recorded with a Beckman Coulter ACL 9000 Coagulation Analyzer according to the manufacturer's instructions. […]
Measurement of cell size. […] The numbers of pixels in 100-300 individual hepatocytes for each mouse were scored with ImageJ (NIH) by an observer who was blinded to the treatment group. […] Mean hepatocyte volume was calculated by dividing the hepatocyte volume by the number of hepatocytes. […]

[3] = tested on: Akt/mTORC1 pathway; test: Western blot / phospho-4E-BP analysis of liver for Akt/mTORC1 pathway activation; format: in vivo, mice
Procedure: as §1
Western blot analysis. […] Tissue lysates containing 100 μg protein were separated by 12% SDS-PAGE, and assessed by Western blot analysis by means of sequential probing with the relevant primary antibody and a relevant anti-IgG conjugated to horseradish peroxidase (Jackson ImmunoResearch).

[4] = tested on: old mice after partial hepatectomy; test: Post-hepatectomy mortality in old mice; format: in vivo; settings: female mice aged 18-24 mo, control four out of nine, P=0.014
Procedure: Animal studies and tissue preparation. All animal experiments were performed in accordance with the guidelines of the Institutional Committee for the Use of Animals for Research (IACUC). Mice aged 18 months or older (‘old’ mice) were either purchased from the National Institute of Aging and from Charles River Laboratories or maintained up to the required age in the Specific Pathogen Free (SPF) animal facility at our institution. Mice aged 10-12 months (‘aged’ mice) and 8-week-old ob/ob mice were purchased from Harlan Laboratories. The genetic background of all mice was c57 Black. Pregnancy in ob/ob mice was induced as described previously (Malik et al., 2001). Pseudopregnancy was induced by mating females with vasectomized males and observing for the presence of vaginal plugs. Progesterone levels were measured to verify pseudopregnancy induction (Shiotani et al., 1993). For rapamycin treatment, mice were injected intraperitoneally (i.p.) for 3 consecutive days with rapamycin (0.2 mg/kg body weight diluted in DMSO; LC Laboratories), starting 3 h before the hepatectomy. […] For measurement of serum prothrombin time, sodium citrate (0.105 M) was added immediately to the blood sample at a ratio of 1:10 (v/v), and values were recorded with a Beckman Coulter ACL 9000 Coagulation Analyzer according to the manufacturer's instructions. […]

[5] = tested on: old mice after partial hepatectomy; test: Post-hepatectomy blood coagulation (prothrombin time) and locomotor activity tests; format: in vivo; settings: female mice aged 18-24 mo, compared with nontreated old mice
Procedure: Animal studies and tissue preparation. All animal experiments were performed in accordance with the guidelines of the Institutional Committee for the Use of Animals for Research (IACUC). Mice aged 18 months or older (‘old’ mice) were either purchased from the National Institute of Aging and from Charles River Laboratories or maintained up to the required age in the Specific Pathogen Free (SPF) animal facility at our institution. Mice aged 10-12 months (‘aged’ mice) and 8-week-old ob/ob mice were purchased from Harlan Laboratories. The genetic background of all mice was c57 Black. Pregnancy in ob/ob mice was induced as described previously (Malik et al., 2001). Pseudopregnancy was induced by mating females with vasectomized males and observing for the presence of vaginal plugs. Progesterone levels were measured to verify pseudopregnancy induction (Shiotani et al., 1993). […] For measurement of serum prothrombin time, sodium citrate (0.105 M) was added immediately to the blood sample at a ratio of 1:10 (v/v), and values were recorded with a Beckman Coulter ACL 9000 Coagulation Analyzer according to the manufacturer's instructions. […]
Locomotor activity. This was monitored using a photocell cage, 43.2 cm×43.2 cm (Med Associates), with 16 beam I/R arrays located along each wall of the box. […]

[6] = tested on: hepatocytes; settings: previous studies; cited from earlier work
[7] = tested on: H35 cells (rat hepatoma cell line); test: Western blot of H35 cells treated with leptin, IL6 or both; format: cell-based; settings: starvation for 16 h then treated
Procedure: Western blot analyses of hepatoma rat cells, that were under starvation for 16 h and then treated with: bpV(phen), leptin, IL-6 and combination of IL-6 and Leptin.
Leptin is an adipokine of the IL6 family and its receptor signals through both the JAK/STAT and the Akt/mTORC1 pathways. Its origin is placental in humans, maternal in mice, and in late pregnancy it is increased by up to 25-fold. To test whether pregnancy-induced leptin accumulation contributes to the proliferation-to-hypertrophy switch in pregnancy we used ob/ob mice, which carry a loss-of-function mutation in leptin. Indeed, hepatocyte proliferation was not decreased in pregnant versus non-pregnant ob/ob mice (FIG. 13A). Moreover, liver regeneration in pregnant ob/ob mice was not accompanied by hepatocyte hypertrophy (FIGS. 13B-D). These findings confirmed that maternal leptin is necessary for the pregnancy-induced module switch. Furthermore, the phosphorylation state of components of the Akt/mTORC1 pathway was not increased in pregnant relative to nonpregnant mice (FIG. 13E FIG. 4e). […] Cells were harvested and protein extracts were analyzed by Western blot analysis. […] To test whether leptin is sufficient to activate the hypertrophy module, we administered leptin or vehicle to nonpregnant female mice prior to and after hepatectomy (FIG. 15A) and assessed liver growth and proliferation.

[8] = tested on: liver regeneration; test: Prolactin administration to nonpregnant mice, liver regeneration; format: in vivo; settings: data not shown
Description: In searching for the upstream signals mediating the pregnancy-induced switch, we identified four candidate hormones that are elevated in pregnancy and can activate the Akt/mTORC1 pathway: growth hormone (and its variants), prolactin, leptin and estrogen.

[9] = young nonpregnant mice treated with bpV(phen), after partial hepatectomy

With `O.O.O.OO.OO.[K+].[OH-].[V].c1cnc2c(c1)ccc1cccnc12` [bpV(phen), bisperoxovanadium 1,10-phenanthroline] as the molecule, how does the “proliferation index” value [1, 9] read?
The value was “low proliferation index”.

What about the BrdU-labeled hepatocytes ([1]; young nonpregnant mice, 4 d after partial hepatectomy, continuous BrdU, bpV(phen) 3.3 μg/g i.p., untreated 92±1%) of the same molecule?
Its BrdU-labeled hepatocytes is 8±2%.

And the “growth in the mean cross-sectional area” value [2, 9]?
The value was 115%.

What about the “activation of Akt/mTORC1 pathway (phosphorylated Akt and 4E-BP1, Western blot)” value ([3]; liver extracts of young mice treated with bpV(phen)) of the same molecule?
The value was “activates the Akt/mTORC1 pathway”.

And the mortality rate [4]?
The mortality rate was “zero out of nine”.

And the “recovery from partial hepatectomy (blood coagulation and locomotor activity)” value [5]?
The value was “significant improvement in recovery from partial hepatectomy”.

With `CO[C@H]1C[C@@H]2CC[C@@H](C)[C@@](O)(O2)C(=O)C(=O)N2CCCC[C@H]2C(=O)O[C@H]([C@H](C)C[C@@H]2CC[C@@H](O)[C@H](OC)C2)CC(=O)[C@H](C)/C=C(\C)[C@@H](O)[C@@H](OC)C(=O)[C@H](C)C[C@H](C)/C=C/C=C/C=C/1C` [rapamycin] as the molecule, how does the “hepatocyte proliferation rate (BrdU-labeled)” value ([1]; aged pregnant mice, 2 d after partial hepatectomy, rapamycin 0.2 mg/kg i.p. for 3 days, vehicle 2%±1%) read?
The value was 25±8% and 25%±8%.

What about the cell size ([2]; aged pregnant mice, 2 d after partial hepatectomy, rapamycin-treated, vehicle 527±2) of the same molecule?
Its cell size is 422±1 μ^2.

Which “hepatocyte proliferation after partial hepatectomy” value [6] does the source give for Estrogen here?
Its value is “increase hepatocyte proliferation after partial hepatectomy”.

For “growth hormone: hormone elevated in pregnancy; not tested by the applicant, literature result only”, which “hepatocyte proliferation after partial hepatectomy” value [6] is on record?
Its value is “increase hepatocyte proliferation after partial hepatectomy”.

B1: leptin: adipokine of the IL6 family; mouse leptin was injected in mice (protein, UniProt P41160 22-167, looked up)
Leptin: VPIQKVQDDTKTLIKTIVTRINDISHTQSVSAKQRVTGLDFIPGLHPILSLSKMDQTLAVYQQVLTSLPSQNVLQIANDLENLRDLLHLLAFSKSCSLPQTSGLQKPESLDGVLEASLYSTEVVALSRLQGSLQDILQQLDVSPEC
For B1, which “hepatocyte proliferation (BrdU-positive cells)” value ([1]; nonpregnant female mice, leptin S.C. 1 mg/kg from two days before to two days after partial hepatectomy) is on record?
The value was “marked reduction in hepatocyte proliferation”.

What about the “Akt pathway activation (phosphorylation of 4E-BP)” value ([3]; nonpregnant female mice, leptin S.C. 1 mg/kg, two days after partial hepatectomy) of the same molecule?
Its value is “activating the Akt pathway”.

What about the “Akt pathway activation (phosphorylation of S6 kinase and 4E-BP)” value [7] of the same molecule?
Its value is “activates the Akt pathway; also recorded: phosphorylation of both S6 kinase and 4E-BP”.

What about the “hepatocyte proliferation after partial hepatectomy” value [6] of the same molecule?
The value was “attenuates hepatocyte proliferation after partial hepatectomy”.

B2: prolactin: hormone elevated in pregnancy that can activate the Akt/mTORC1 pathway (protein, UniProt P01236 29-227, looked up)
Prolactin: LPICPGGAARCQVTLRDLFDRAVVLSHYIHNLSSEMFSEFDKRYTHGRGFITKAINSCHTSSLATPEDKEQAQQMNQKDFLSLIVSILRSWNEPLYHLVTEVRGMQEAPEAILSKAVEIEEQTKRLLEGMELIVSQVHPETKENEIYPVWSGLPSLQMADEESRLSAYYNLLHCLRRDSHKIDNYLKLLKCRIIHNNNC
With B2 as the molecule, how does the “effect on liver regeneration” value [8] read?
Its value is “no effect on liver regeneration”.
